Reference: patent US11554171B2, “Compounds and methods for the targeted degradation of bromodomain-containing proteins” (Arvinas Operations, Inc., priority 2015, dated 2023)

Test system: c-myc in 22RV-1 cells
Assay: Human c-myc ELISA assay
Assay type: cell-based
Details: Homo sapiens; for Emax: 22Rv1, 18 h, read-out: Degradation of BRD4: Maximum inhibition (%) c-Myc ELISA in 22RV1 cells; for DC50: 22Rv1, read-out: Degradation of BRD4: DC50 (uM) c-Myc ELISA in 22RV1 cells
Outline: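 22RV-1 cells treated 18 h with 8-point 1:3 compound dilutions (final top 300 nM or 1 μM, 0.1% DMSO). Cells lysed in RIPA buffer with protease/phosphatase inhibitors, and c-myc protein in cleared lysate quantified by ELISA against a standard curve. DC50 reported for c-myc suppression.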

DC50 [µM]	SMILES	Emax [%]
> 1	Cc1ncsc1-c1ccc([C@H](C)NC(=O)[C@@H]2C[C@@H](O)CN2C(=O)[C@@H](C(C)C)n2cc(-c3ccnc(N4CCN(C(=O)C[C@@H]5N=C(c6ccc(Cl)cc6)c6c(sc(C)c6C)-n6c(C)nnc65)CC4)c3)cn2)cc1 [Example 323]	43
< 0.01	Cc1ncsc1-c1ccc([C@H](C)NC(=O)[C@@H]2C[C@@H](O)CN2C(=O)[C@@H](NC(=O)COc2ccnc(N3CCN(C(=O)C[C@@H]4N=C(c5ccc(Cl)cc5)c5c(sc(C)c5C)-n5c(C)nnc54)CC3)c2)C(C)(C)C)cc1 [Example 327, (2S,4R)-1-[(2S)-2-(2-{[2-(4-{2-[(9S)-7-(4-chlorophenyl)-4,5,13-trimethyl-3-thia-1,8,11,12-tetraazatricyclo[8.3.0.0^2,^6]trideca-2(6),4,7,10,12-pentaen-9-yl]acetyl}piperazin-1-yl)pyridin-4-yl]oxy}acetamido)-3,3-dimethylbutanoyl]-4-hydroxy-N-[(1S)-1-[4-(4-methyl-1,3-thiazol-5-yl)phenyl]ethyl]pyrrolidine-2-carboxamide]	96
0.01 to 0.1	Cc1ncsc1-c1ccc(CNC(=O)[C@@H]2C[C@@H](O)CN2C(=O)[C@@H](NC(=O)COc2ccc(S(=O)(=O)CCNC(=O)C[C@@H]3N=C(c4ccc(Cl)cc4)c4c(sc(C)c4C)-n4c(C)nnc43)cc2)C(C)(C)C)cc1 [Example 113]	88.5
0.01 to 0.1	Cc1ncsc1-c1ccc(CNC(=O)[C@@H]2C[C@@H](O)CN2C(=O)[C@@H](NC(=O)COCCCOCCCOc2ccc(C(C)(C)NC(=O)C[C@@H]3N=C(c4ccc(Cl)cc4)c4c(sc(C)c4C)-n4c(C)nnc43)cc2)C(C)(C)C)cc1 [Example 37]	96
> 1	Cc1ncsc1-c1ccc([C@H](C)NC(=O)[C@@H]2C[C@@H](O)CN2C(=O)[C@@H](C(C)C)n2cc(-c3ccnc(O[C@H]4C[C@@H](NC(=O)C[C@@H]5N=C(c6ccc(Cl)cc6)c6c(sc(C)c6C)-n6c(C)nnc65)C4)n3)cn2)cc1 [Example 300]	24
< 0.01	Cc1ncsc1-c1ccc([C@H](C)NC(=O)[C@@H]2C[C@@H](O)CN2C(=O)[C@@H](NC(=O)c2ccc(OC(C)CCNC(=O)C[C@@H]3N=C(c4ccc(Cl)cc4)c4c(sc(C)c4C)-n4c(C)nnc43)cn2)C(C)(C)C)cc1 (stereo partly drawn) [Example 157]	97
> 1	Cc1sc2c(c1C)C(c1ccc(Cl)cc1)=N[C@@H](CC(=O)N[C@H]1C[C@@H](Oc3ccc(OCC(=O)N[C@H](C(=O)N4C[C@H](O)C[C@H]4C(=O)N[C@@H](C)c4ccc(-c5nccn5C)cc4)C(C)(C)C)cn3)C1)c1nnc(C)n1-2 [Example 260]	13
0.1 to 1	Cc1ncsc1-c1ccc(CNC(=O)[C@@H]2C[C@@H](O)CN2C(=O)[C@@H](NC(=O)CCN2CCN(CCNC(=O)C[C@@H]3N=C(c4ccc(Cl)cc4)c4c(sc(C)c4C)-n4c(C)nnc43)CC2)C(C)(C)C)cc1 [Example 103]	62.5
> 1	Cc1ncsc1-c1ccc(CNC(=O)[C@@H]2C[C@@H](O)CN2C(=O)[C@@H](C(C)C)n2cc(-c3cccc(OCCNC(=O)C[C@@H]4N=C(c5ccc(Cl)cc5)c5c(sc(C)c5C)-n5c(C)nnc54)c3)cn2)cc1 [Example 162]	7.62
< 0.01	Cc1ncsc1-c1ccc([C@H](C)NC(=O)[C@@H]2C[C@@H](O)CN2C(=O)[C@@H](n2cc(-c3ccnc(O[C@H]4C[C@@H](NC(=O)C[C@@H]5N=C(c6ccc(Cl)cc6)c6c(sc(C)c6C)-n6c(C)nnc65)C4)c3)cn2)C(C)(C)C)cc1 [Example 240]	97
0.1 to 1	Cc1ncsc1-c1ccc([C@H](C)NC(=O)[C@@H]2C[C@@H](O)CN2C(=O)[C@@H](C(C)C)n2cc(-c3ccc(N4CCN(C(=O)C[C@@H]5N=C(c6ccc(Cl)cc6)c6c(sc(C)c6C)-n6c(C)nnc65)CC4)nc3)cn2)cc1 [Example 321]	56
< 0.01	Cc1ncsc1-c1ccc([C@H](C)NC(=O)[C@@H]2C[C@@H](O)CN2C(=O)[C@@H](NC(=O)COCCCOC2CN(C(=O)C[C@@H]3N=C(c4ccc(Cl)cc4)c4c(sc(C)c4C)-n4c(C)nnc43)C2)C(C)(C)C)cc1 [Example 182]	100
